Results: US12576107B2, “Methods of treating chronic inflammatory diseases” (METIMEDI PHARMACEUTICALS CO., LTD., priority 2018, dated 2026)

Key:
[1] = system: LPS-induced periodontal disease rats; assay: Periodontal disease model, intragingival injection of LPS; assay type: in vivo, Sprague-Dawley (SD) rats; details: 2 mg/kg daily subcutaneous 21 days
Description: Animals. […] Eight-week old male Sprague-Dawley (SD) rats were obtained from Samtako Co. (Osan, Gyeonggi-do, Republic of Korea) and bred under specific-pathogen-free (SPF) conditions. All animals were maintained in a 12-hour light/dark cycle at 22-25° C. with free access to food and water.
Dissolve 1 mg of LPS powder in 100 μl of saline. Keep the tubes on ice if LPS is going to be used fresh. For long storage, use screw cap vials are preferred. The aliquots were stored in a deep freezer (−20° C.). Calcium lactate was purchased from Sigma Aldrich (St. Louis, MO, USA).
Animal model for periodontal disease. Periodontal disease was induced by intragingival injection of LPS (1 mg/100 μl) in sterile saline. A fine hypodermic needle was inserted at the mesiolateral aspect of the first right mandibular molar and the tip moved distally so that the injection was made at the interdental papilla between the first and second molars. The injection was slowly made, and the needle held in place for 10 seconds post injection to ensure that the LPS was not lost through the needle track.
Histological analysis. […] Mount with mounting medium.

Apolipoprotein E = assay: Immunocytochemistry of drusen marker Apolipoprotein E in ARPE-19 cells; assay type: cell-based, Human; details: 2.5 mM, hypoxia
Description: (§1) Human retinal pigment epithelium cell line, ARPE-19, was purchased from American Type Culture Collection (Manassas, VA, USA). The ARPE-19 cells were maintained in RPMI1640 containing 10% fetal bovine serum (Life Technologies, Gaithersburg, MD, USA), 100 IU/ml penicillin, and 100 μg/ml streptomycin (Welgene, Daegu, South Korea).
ARPE-19 and SK-N-SH cells were fixed on bio-coated coverslips (BD bioscience, San Jose, CA, USA) by 4% PFA for 20 min and then incubated with the primary antibodies for 15 h. The primary antibodies were as follows: HIF-1a (1:300, BD Biosciences, San Jose, CA, USA); LDH-A (1:300, Santa Cruz Biotechnology, Santa Cruz, CA, USA); LDH-B (1:300, Santa Cruz Biotechnology, Santa Cruz, CA, USA); NF-κB (1:300, Santa Cruz Biotechnology, Santa Cruz, CA, USA); TLR-4 (1:300, Santa Cruz Biotechnology, Santa Cruz, CA, USA); apoE (1:200, Santa Cruz Biotechnology, Santa Cruz, CA, USA). After PBS wash, the cells were incubated with anti-mouse secondary biotinylated antibody (1:2000, Vector Laboratorie, Burlingame, CA, USA) and visualized with streptavidin conjugated to Fluorescein (Vector Laboratorie, Burlingame, CA, USA). […] Confocal fluorescence images were obtained with confocal laser scanning microscopy (LSCM, Nikon A1+, Tokyo, Japan) under a 60× oil immersion lens.

[2] = system: High cholesterol diet supplied ApoE-deficient mice (Atherosclerosis); assay: Vascular disease (atherosclerosis) model, high fat diet ApoE-deficient mice; assay type: in vivo, BALB/c ApoE^shi mice
Description: Animals. […] Fibe-week old male BALB/c ApoE^shi mice were obtained from Japan SLC Inc. (Shizuoka, Japan) and bred under specific-pathogen-free (SPF) conditions. All animals were maintained in a 12-hour light/dark cycle at 22-25° C. with free access to food and water.
Calcium lactate was purchased from Sigma Aldrich (St. Louis, MO, USA).
Animal model for vascular disease. BALB/c ApoE^shi species is used for spontaneous induction of vascular disease. In this investigation, a high fat (40%) diet was provided for 4 weeks to induce strong atherosclerosis.
Histological analysis. The thoracic aorta was transected, and a half of the aorta was fixed in 10% neutral buffer formalin fixative solution. Then, histological analysis was performed. Histological analysis was performed with H&E and Oil red O staining. Aortic wall thickness, atherosclerotic plaque areas, foam cell numbers, and lipidated regions were analyzed.
Statistical analysis. Statistical analysis was performed using SPSS statistics, and the results were analyzed using Student t-test. Histologic analysis was performed using the Mann-Whitney method. P<0.05 was considered statistically significant.

lactate dehydrogenase B = assay: Human fibroblast in vitro experiment, Western blot in CCD-18Co cells; assay type: cell-based; details: 2.5 mM; CCD-18Co cells (human colon fibroblast); hypoxia
Description: as §1, with “Colon Fibroblast” for “retinal pigment epithelium”, “CCD-18-Co,” for “ARPE-19,”, “CCD-18Co” for “ARPE-19”, “DMEM” for “RPMI1640”
To prepare whole cell lysate, cells were lysed with lysis buffer (1% NP-40, 0.25% sodium deoxycholate, 150 mM NaCl, 1 mM EDTA, 1% Triton X-100, 50 mM Tris-HCl (pH 7.4), 10% Glycerol) with protease inhibitor cocktail (Roche, Basel, Switzerland) and phosphatase inhibitors (NA3VO4 1 mM, NaF 100 mM). Then, protein concentration was measured using the Bicinchoninic acid (BCA) assay kit (Thermo Scientific, Waltham, MA). Whole cell or nuclear lysates were transferred onto polyvinylidene fluoride membranes (Merck Millipore, Billerica, MA, USA). After blocking in 5% non-fat milk (Bio-Rad, Hercules, CA, USA) for 1 h, the membranes were incubated overnight at 4° C. with primary antibody diluted in TBST containing 100 mM Tris-HCl (pH 7.5), 1.5 M NaCl, and 0.5% Tween-20 obtained from Sigma-Aldrich, to which 5% BSA and 0.1% sodium azide (Sigma-Aldrich) had been added. Specific primary antibodies to HIF-1α (1:1000), HIF-2α (1:1000), LDH-A (1:1000), LDH-B (1:1000), TLR-4 (1:1000), NF-κB (1:1000), VEGF (1:1000), α-tubulin (1:1000), Actin (1:1000), and GAPDH (1:5000). […]

[3] = 2 mg/kg daily subcutaneous, male ApoE-deficient mice, mean ± S.E.M.
[4] = male ApoE-deficient mice, n = 8, mean ± S.E.M.

For CC(O)C(=O)[O-].CC(O)C(=O)[O-].[Ca+2] (centres unmarked) [calcium lactate], the “ligaments and gingiva around the root of tooth (Masson's trichrome)” value [1] was “recovered”, the “morphology of the upper gum (Masson's trichrome)” value [1] was “recovered” and the “drusen marker (Apolipoprotein E), immunocytochemistry” value (Apolipoprotein E) was “decreased”. For the same compound, the “ATHEROSCLEROTIC PLAQUE AREAS” value [2, 3] was 0.10 ± 0.03^++ mm^2, the “FOAM CELL NUMBERS” value [2, 3] was 39.00 ± 10.13^+ cells/mm^2 and the “LIPID DEPOSITED REGIONS” value [2, 3] was 0.09 ± 0.03^++ mm^2. The “MEAN AORTA WALL THICKNESS” value [2, 3] was 85.83 ± 8.70^+ μm, the “atherosclerotic lesions of aorta (H&E, oil red O)” value ([2]; ApoE-deficient mice) was “decreased” and the “pathogenic factors cholesterol (TCHO), LDL cholesterol (LDL), triglycerides (TG), HDL-cholesterol (HDL)” value ([2]; ApoE-deficient mice, blood) was “not controlled”. The “HDL (clinical blood biochemistry)” value [2, 4] was 197.2 ± 3.7 mg/dL, the “LDL (clinical blood biochemistry)” value [2, 4] was 1537.1 ± 14.2 mg/dL and the “TCHO (clinical blood biochemistry)” value [2, 4] was 2328.0 ± 56.7 mg/dL. The “TG (clinical blood biochemistry)” value [2, 4] was 54.8 ± 2.8 mg/dL and the “lactate dehydrogenase B, Western blot” value (lactate dehydrogenase B) was “increased”.
